Tests used:
Type in all cases: functional, tissue-based
Settings in all cases: Cavia porcellus, 0.5 h
[1] = system: Ileum; test: Antispasmodic activity in guinea pig ileum assessed as inhibition of acetylcholine-induced tissue contraction after 30 mins
[2] = system: Ileum; test: Antispasmodic activity in guinea pig ileum assessed as inhibition of electrically-induced tissue contraction after 30 mins
[3] = system: Ileum; test: Antispasmodic activity in guinea pig ileum assessed as inhibition of histamine-induced tissue contraction after 30 mins

Structure (SMILES) | IC50 [1] [µM] | IC50 [2] [µM] | IC50 [3] [µM]
COc1ccc2c(c1)/C=C\N=C\c1cc(O)ccc1CC2=O | 85 | 86 | 59
COc1ccc2c(c1)/C=C\N=C\c1cc(OC)ccc1CC2=O | 58 | 66 | 68
O=C1Cc2ccc(O)cc2/C=N/CCc2cc(O)ccc21 | 26 | 21 | 26
COc1ccc2c(c1)/C=N/CCc1cc(OC)ccc1C(=O)C2 | 20 | 19 | 22
O=C1Cc2ccc(O)cc2/C=N/C=C\c2cc(O)ccc21 [CONSTRICTOSINE] | 75 | 66 | 51
